Target: T1, cMoL (coagulant lectin from Moringa oleifera seeds) (Moringa oleifera, UniProt Z9EIH6G9R5)
T1 construct: native, purified from seeds (ammonium sulfate, guar gel column); 101 residues; homodimer
T1 sequence (Z9EIH6G9R5 1-101): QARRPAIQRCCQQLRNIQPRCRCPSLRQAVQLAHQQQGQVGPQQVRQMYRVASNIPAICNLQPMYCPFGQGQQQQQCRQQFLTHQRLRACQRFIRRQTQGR
Experiment: intrinsic fluorescence quenching, modified Stern-Volmer
Assay type: binding
Conditions: 298 K; water; excitation 280 nm; Hill h ~2 (dimer)
From the text: intrinsic fluorescence quenching, modified Stern-Volmer on cMoL (coagulant lectin from Moringa oleifera seeds)

| SMILES | Ka (10^2 M^-1) |
| --- | --- |
| OC[C@H]1OC(O)[C@H](O)[C@@H](O)[C@H]1O (some centres unmarked) [galactose] | 0.1239 ± 0.00004 10^2 M^-1 |
| OC[C@H]1OC(O)[C@H](O)[C@@H](O)[C@@H]1O (some centres unmarked) [glucose] | 0.2979 ± 0.00007 10^2 M^-1 |

Source: article PMC11477877, “Carbohydrate-Binding Mechanism of the Coagulant Lectin from Moringa oleifera Seeds (cMoL) Is Related to the Dimeric Protein Structure” (Molecules, 2024)
